Test results from patent US9580390B2, “Indazole compounds as kinase inhibitors and method of treating cancer with same” (University Health Network, priority 2011, dated 2017).

Columns and labels:
[1] = tested on: colon cancer cells (HCT116); experiment: Cancer cell line growth inhibition (SRB assay); assay type: cell-based; conditions: Homo sapiens, HCT-116; read-out: Cancer Cell Line GI50 Range HCT116
Protocol: Breast cancer cells (MDA-MB-231), colon cancer cells (HCT116) and ovarian cancer cells (PA-1) were seeded (1000 to 4000 in 80 μl per well depending on the cell growth rate) into 96 well plates 24 hours before compound overlay. Compounds were prepared as 10 mM stock solutions in 100% DMSO which were diluted with DMEM (Dulbecco's Modified Eagle's Medium) cell growth Medium (Invitrogen, Burlington, ON, Canada) containing 10% FBS (Fetal Bovine Serum) to concentrations ranging from 50 nM to 250 μM. Aliquots (20 μl) from each concentration were overlaid to 80 μl of the pre-seeded cells in the 96 well plates to make final concentrations of 10 nM to 50 μM. The cells were cultured for 5 days before the Sulforhodamine B assay (SRB) was performed to determine the compound's cell growth inhibition activity.
Sulforhodamine B (purchased from Sigma, Oakville, ON, Canada) is a water-soluble dye that binds to the basic amino acids of the cellular proteins. Thus, colorimetric measurement of the bound dye provides an estimate of the total protein mass that is related to the cell number. the cells are fixed in situ by gently aspirating off the culture media and adding 50 μl ice cold 10% Trichloroacetic Acid (TCA) per well and incubate at 4° C. for 30-60 min. The plates are washed with H2O five times and allowed to air dry for 5 min. Addition of 50 μl 0.4% (w/v) SRB solution in 1% (v/v) acetic acid to each well and incubation for 30 min at RT completes the staining reaction. Following staining, plates are washed four times with 1% acetic acid to remove unbound dye and then allowed to air dry for 5 min. The stain is solubilized with 100 μl of 10 mM Tris pH 10.5 per well. Absorbance is read at 570 nm.
The percentage (%) of relative growth inhibition was calculated by comparing to DMSO treated only cells (100%). GI50's were determined for compounds with cytotoxic activity. The GI50 was calculated using GraphPad PRISM software (GraphPad Software, Inc., San Diego, Calif., USA).

[2] = tested on: TICs (Ovarian 2393A); experiment: Ovarian tumor-initiating cell growth inhibition (Alamar Blue); assay type: cell-based; conditions: 144 h; Ovarian 2393A TICs, 6 days; read-out: Tumor Initiating Cell GI50 Range Ovarain 2393A
[3] = tested on: TICs (Colon 12); experiment: Colon tumor-initiating cell growth inhibition (Alamar Blue); assay type: cell-based; conditions: 216 h; Colon 12 TICs, 9 days; read-out: Tumor Initiating Cell GI50 Range Colon 12
[4] = biological target: T1, ALK (Homo sapiens, UniProt Q9UM73); experiment: Panel of 270 human kinases (Millipore); assay type: biochemical
T1 construct: purchased Millipore Corporation
Protocol: (§1) The inhibitory activity of selected compounds of the invention (A335, A405, A410, A261, A300 and A363) was evaluated against a panel of 270 different human kinase enzymes by Millipore Corporation. The % Inhibition was determined by the formula: % Inhibition=100×(1−(experimental value−background value)/(high activity control−background value)).

[5] = biological target: T2, Aurora-B (Homo sapiens, UniProt Q96GD4); experiment: Panel of 270 human kinases (Millipore); assay type: biochemical
T2 construct: purchased Millipore Corporation
Protocol: as §1

[6] = biological target: T3, MELK (Homo sapiens, UniProt Q14680); experiment: Panel of 270 human kinases (Millipore); assay type: biochemical
T3 construct: purchased Millipore Corporation
Protocol: as §1

[7] = biological target: T4, cKit (V560G) (Homo sapiens, UniProt P10721, V560G); experiment: Panel of 270 human kinases (Millipore); assay type: biochemical
T4 construct: purchased Millipore Corporation
Protocol: as §1

[8] = biological target: T5, MAPK2 (Homo sapiens, UniProt P28482); experiment: Panel of 270 human kinases (Millipore); assay type: biochemical
T5 construct: purchased Millipore Corporation
Protocol: as §1

[9] = biological target: T6, JNK3 (Homo sapiens, UniProt P53779); experiment: Panel of 270 human kinases (Millipore); assay type: biochemical
T6 construct: purchased Millipore Corporation
Protocol: as §1

[10] = biological target: T7, Met(Y1248C) (Homo sapiens, UniProt P08581, Y1230C); experiment: Panel of 270 human kinases (Millipore); assay type: biochemical
T7 construct: purchased Millipore Corporation
Protocol: as §1

[11] = biological target: T8, MUSK (Homo sapiens, UniProt O15146); experiment: Panel of 270 human kinases (Millipore); assay type: biochemical
T8 construct: purchased Millipore Corporation
T8 sequence (O15146 24-869): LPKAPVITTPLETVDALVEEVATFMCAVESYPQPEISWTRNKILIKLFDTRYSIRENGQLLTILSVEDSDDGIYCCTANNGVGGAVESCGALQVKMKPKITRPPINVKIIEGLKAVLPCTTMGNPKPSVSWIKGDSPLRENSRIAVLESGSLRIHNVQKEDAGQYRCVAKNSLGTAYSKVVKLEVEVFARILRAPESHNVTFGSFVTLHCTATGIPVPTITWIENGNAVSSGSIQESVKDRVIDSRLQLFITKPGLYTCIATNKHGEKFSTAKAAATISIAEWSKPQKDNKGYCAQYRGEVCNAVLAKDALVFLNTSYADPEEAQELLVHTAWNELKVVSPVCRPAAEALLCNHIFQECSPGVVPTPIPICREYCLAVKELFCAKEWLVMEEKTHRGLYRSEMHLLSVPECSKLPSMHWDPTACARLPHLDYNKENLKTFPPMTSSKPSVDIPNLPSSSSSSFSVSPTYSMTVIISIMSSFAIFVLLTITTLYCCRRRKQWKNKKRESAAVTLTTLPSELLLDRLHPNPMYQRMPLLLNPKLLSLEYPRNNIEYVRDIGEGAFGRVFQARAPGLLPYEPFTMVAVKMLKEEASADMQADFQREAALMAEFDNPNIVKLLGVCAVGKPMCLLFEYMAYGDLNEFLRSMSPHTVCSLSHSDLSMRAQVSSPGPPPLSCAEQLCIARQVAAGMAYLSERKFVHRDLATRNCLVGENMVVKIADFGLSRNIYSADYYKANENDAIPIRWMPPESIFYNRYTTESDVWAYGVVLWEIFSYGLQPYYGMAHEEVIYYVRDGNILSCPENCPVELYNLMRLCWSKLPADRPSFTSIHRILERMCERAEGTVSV
Protocol: as §1

T2 sequence (Q96GD4 whole entry): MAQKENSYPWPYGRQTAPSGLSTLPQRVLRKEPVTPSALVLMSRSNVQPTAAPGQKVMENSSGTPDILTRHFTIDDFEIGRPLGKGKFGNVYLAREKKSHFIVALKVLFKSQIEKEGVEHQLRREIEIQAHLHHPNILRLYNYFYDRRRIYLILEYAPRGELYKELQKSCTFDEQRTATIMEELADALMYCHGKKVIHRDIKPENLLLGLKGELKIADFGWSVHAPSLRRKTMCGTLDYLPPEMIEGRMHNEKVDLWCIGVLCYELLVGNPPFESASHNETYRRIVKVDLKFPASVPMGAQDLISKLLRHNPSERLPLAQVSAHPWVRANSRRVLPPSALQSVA
T1 sequence (Q9UM73 19-1620): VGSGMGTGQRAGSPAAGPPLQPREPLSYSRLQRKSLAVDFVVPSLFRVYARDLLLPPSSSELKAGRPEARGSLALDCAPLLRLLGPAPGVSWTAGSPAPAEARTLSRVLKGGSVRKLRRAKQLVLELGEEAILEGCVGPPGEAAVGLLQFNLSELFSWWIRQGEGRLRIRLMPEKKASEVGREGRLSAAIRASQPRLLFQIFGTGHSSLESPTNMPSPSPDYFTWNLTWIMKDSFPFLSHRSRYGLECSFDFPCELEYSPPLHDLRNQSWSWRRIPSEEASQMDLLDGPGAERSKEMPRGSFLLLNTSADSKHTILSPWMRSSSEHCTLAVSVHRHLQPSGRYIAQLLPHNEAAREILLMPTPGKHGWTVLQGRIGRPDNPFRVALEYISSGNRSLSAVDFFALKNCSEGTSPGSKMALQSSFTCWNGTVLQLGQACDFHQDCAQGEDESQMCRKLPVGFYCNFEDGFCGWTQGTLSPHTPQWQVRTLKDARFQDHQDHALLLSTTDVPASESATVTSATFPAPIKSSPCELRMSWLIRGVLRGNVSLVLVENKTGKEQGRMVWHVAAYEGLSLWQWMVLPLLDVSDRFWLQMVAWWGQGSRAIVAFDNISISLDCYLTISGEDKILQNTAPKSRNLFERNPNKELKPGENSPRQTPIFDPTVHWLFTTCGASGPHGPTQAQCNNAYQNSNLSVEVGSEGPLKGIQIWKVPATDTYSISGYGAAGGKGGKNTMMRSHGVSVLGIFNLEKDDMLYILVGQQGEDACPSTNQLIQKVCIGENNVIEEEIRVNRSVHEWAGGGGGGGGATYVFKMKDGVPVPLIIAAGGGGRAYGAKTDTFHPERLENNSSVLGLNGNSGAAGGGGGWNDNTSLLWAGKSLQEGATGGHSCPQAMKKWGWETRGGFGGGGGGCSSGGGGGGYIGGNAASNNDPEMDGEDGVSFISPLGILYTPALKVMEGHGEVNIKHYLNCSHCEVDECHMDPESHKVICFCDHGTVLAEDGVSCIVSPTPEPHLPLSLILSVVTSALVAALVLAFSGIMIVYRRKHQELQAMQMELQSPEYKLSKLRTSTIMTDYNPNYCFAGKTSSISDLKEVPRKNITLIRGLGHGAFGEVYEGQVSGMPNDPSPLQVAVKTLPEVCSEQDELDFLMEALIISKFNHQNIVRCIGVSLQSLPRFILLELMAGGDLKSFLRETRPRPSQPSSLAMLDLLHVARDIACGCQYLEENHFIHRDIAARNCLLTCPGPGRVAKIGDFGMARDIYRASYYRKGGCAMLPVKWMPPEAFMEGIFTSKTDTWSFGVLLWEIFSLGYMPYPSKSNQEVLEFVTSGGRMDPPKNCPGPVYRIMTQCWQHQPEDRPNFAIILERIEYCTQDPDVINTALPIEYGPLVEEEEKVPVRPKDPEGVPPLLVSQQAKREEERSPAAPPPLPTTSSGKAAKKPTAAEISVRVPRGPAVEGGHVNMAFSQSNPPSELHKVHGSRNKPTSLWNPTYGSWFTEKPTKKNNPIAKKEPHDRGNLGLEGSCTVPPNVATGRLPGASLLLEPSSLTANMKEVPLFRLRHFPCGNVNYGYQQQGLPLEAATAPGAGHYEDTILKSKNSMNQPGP
T7 sequence (P08581 25-1408 isoform P08581-2 Y1248C limits assumed): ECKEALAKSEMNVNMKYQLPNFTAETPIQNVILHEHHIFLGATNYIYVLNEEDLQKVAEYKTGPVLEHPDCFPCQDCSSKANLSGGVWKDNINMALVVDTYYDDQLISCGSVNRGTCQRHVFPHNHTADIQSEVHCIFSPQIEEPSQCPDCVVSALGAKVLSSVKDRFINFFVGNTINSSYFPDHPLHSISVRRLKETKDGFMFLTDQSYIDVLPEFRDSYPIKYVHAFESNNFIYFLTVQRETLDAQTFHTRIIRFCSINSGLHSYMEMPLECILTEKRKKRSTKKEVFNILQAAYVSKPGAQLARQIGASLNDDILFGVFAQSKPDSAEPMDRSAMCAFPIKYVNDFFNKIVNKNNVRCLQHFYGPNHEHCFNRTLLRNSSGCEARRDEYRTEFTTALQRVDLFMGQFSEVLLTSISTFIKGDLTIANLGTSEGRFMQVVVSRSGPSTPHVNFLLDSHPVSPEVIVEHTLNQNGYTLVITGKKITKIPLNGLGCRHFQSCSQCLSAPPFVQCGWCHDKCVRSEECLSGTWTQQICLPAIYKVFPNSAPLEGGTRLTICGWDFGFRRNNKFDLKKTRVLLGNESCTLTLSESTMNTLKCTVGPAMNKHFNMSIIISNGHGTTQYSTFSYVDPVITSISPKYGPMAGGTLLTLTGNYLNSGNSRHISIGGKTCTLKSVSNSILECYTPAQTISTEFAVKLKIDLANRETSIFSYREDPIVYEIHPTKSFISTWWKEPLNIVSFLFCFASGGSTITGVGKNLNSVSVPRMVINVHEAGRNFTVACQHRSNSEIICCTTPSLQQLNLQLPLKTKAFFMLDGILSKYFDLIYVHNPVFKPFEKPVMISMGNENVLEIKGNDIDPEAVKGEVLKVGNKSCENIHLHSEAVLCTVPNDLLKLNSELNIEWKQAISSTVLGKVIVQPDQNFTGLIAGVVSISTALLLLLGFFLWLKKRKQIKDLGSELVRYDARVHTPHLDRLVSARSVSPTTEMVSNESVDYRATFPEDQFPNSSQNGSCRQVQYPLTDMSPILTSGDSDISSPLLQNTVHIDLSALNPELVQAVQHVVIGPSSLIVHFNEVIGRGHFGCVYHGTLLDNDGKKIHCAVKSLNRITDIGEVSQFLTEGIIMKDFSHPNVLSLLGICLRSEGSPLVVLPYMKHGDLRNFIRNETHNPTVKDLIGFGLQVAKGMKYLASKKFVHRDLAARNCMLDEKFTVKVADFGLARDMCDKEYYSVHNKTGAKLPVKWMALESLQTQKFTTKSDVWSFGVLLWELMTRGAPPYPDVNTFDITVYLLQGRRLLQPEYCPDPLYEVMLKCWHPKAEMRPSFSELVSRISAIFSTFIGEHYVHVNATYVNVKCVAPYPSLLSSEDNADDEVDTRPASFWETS
T4 sequence (P10721 26-976 V560G): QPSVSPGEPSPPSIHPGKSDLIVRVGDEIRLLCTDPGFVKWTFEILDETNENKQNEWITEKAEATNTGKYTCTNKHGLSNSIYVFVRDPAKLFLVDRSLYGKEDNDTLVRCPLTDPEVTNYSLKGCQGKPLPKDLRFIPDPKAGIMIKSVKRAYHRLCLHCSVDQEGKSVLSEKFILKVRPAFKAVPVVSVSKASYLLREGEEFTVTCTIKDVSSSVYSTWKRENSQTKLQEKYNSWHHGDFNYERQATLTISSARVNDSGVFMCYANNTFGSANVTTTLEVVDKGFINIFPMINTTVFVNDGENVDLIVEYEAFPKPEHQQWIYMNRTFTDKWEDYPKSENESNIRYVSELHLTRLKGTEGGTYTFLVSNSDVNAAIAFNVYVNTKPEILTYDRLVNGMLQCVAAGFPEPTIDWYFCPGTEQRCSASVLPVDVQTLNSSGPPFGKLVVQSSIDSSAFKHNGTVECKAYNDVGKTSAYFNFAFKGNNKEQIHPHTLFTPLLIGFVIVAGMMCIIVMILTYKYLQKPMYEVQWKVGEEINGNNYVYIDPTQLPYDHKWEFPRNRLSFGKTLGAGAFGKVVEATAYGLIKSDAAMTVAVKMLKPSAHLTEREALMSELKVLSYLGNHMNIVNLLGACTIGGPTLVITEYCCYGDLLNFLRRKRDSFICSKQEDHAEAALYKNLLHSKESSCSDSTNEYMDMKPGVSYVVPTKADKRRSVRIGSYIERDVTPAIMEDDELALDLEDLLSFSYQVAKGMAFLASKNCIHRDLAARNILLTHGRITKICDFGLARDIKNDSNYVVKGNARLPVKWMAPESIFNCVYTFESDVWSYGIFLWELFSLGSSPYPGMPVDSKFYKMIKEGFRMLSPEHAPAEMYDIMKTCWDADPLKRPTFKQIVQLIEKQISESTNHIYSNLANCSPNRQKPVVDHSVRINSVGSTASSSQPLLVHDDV
T5 sequence (P28482 whole entry): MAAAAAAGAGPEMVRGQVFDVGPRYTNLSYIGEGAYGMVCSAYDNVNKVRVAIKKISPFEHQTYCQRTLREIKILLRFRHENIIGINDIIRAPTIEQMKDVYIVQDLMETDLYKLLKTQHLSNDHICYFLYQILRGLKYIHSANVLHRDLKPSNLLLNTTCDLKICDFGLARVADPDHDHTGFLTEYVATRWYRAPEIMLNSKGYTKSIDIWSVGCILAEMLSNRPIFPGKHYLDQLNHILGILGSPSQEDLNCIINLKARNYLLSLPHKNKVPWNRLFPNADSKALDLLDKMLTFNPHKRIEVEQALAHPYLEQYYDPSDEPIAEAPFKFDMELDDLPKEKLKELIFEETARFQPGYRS
T6 sequence (P53779 whole entry): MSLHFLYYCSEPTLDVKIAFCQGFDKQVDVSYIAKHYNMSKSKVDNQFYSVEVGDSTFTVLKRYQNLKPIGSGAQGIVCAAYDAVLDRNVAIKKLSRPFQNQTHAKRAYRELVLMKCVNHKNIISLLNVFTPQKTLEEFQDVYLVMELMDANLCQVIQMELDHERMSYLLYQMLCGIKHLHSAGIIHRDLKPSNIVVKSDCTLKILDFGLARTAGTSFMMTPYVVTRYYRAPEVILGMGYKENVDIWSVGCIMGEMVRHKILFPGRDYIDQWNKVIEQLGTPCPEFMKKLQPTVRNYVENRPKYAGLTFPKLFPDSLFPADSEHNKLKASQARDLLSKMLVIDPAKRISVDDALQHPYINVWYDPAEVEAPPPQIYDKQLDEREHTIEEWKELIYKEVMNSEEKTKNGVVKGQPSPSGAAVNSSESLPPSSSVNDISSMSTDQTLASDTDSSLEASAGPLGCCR

Structure (SMILES) | GI50 [1] [nM] | GI50 [2] [nM] | GI50 [3] [nM] | inhibition at 1 µM [4] [%] | inhibition at 1 µM [5] [%] | inhibition at 1 µM [6] [%] | inhibition at 1 µM [7] [%] | inhibition at 1 µM [8] [%] | inhibition at 1 µM [9] [%] | inhibition at 1 µM [10] [%] | inhibition at 1 µM [11] [%]
CC(C)C[C@@H](NC(=O)c1ccc2[nH]nc(-c3ccc(N4CCN(C5COC5)CC4)cc3)c2c1)c1ccccc1Cl [Example A300, (R)-N-(1-(2-chlorophenyl)-3-methylbutyl)-3-(4-(4-(oxetan-3-yl)piperazin-1-yl)phenyl)-1H-indazole-5-carboxamide] | < 100 | 100 to 500 | < 100 | 0 | 69 | 51 | 76 | 5 | 48 | 40 | 54
CC(C)[C@H](NC(=O)c1ccc2[nH]nc(-c3ccc(OC4CC5CCC(C4)N5C4COC4)cc3)c2c1)c1ccccc1Cl (stereo partly shown) [Example A335] | < 100 | < 100 | < 100 | 7 | 87 | 97 | 66 | 0 | 85 | 42 | 91
